This is an account of results in publication PMC6940897, “Less Cytotoxic Protoflavones as Antiviral Agents: Protoapigenone 1′-O-isopropyl ether Shows Improved Selectivity Against the Epstein–Barr Virus Lytic Cycle” (International Journal of Molecular Sciences, 2019).

“Also recorded” adds a separate entry of the source.

The subject of series [1] is EBV lytic cycle (expression of EBV Rta). Description: Inhibition of EBV lytic cycle: immunoblot of Rta expression in P3HR1 cells after lytic induction. In kind it is cell-based, Epstein–Barr Virus. The note with it: for IC50: human gammaherpesvirus 4, P3HR-1, 24 h after lytic induction with SB and TPA; for IC50 / concentration causing a marked reduction in the Rta levels: immunoblot; for selectivity ratio at 24 h: human, cytotoxic IC50 (P3HR1) / anti-EBV Rta IC50, read-out: Selectivity of the anti-EBV vs. cytotoxic effect (ratio of the corresponding IC50 values); for inhibition of EBV lytic cycle, first screening (in words): 0.25 µM, sodium butyrate + TPA, 24 h; for concentration causing a marked reduction in the Rta levels: 24 h after lytic induction. As to the method: Compounds 2 and 6–28 were tested for their activity on the EBV lytic cycle. To assess this, the P3HR1 cells were treated with sodium butyrate and TPA for 24 h. As expected, lytic protein Rta was expressed after lytic induction. As a first screening, the cells were treated with protoapigenone (2), used as a positive control, or compounds 6–28 at the induction of lytic cycle for 24 h.
(§1) EBV-positive BL cell line P3HR1 cells were cultured in RPMI 1640 medium. Culture media were supplemented with 10% fetal calf serum. P3HR1 cells were treated with 3 mM sodium butyrate and 30 nM 12-O-tetradecanoylphobol-13-actetae (TPA) to induce the EBV lytic cycle.
P3HR1 cells were lysed in mRIPA buffer (50 mM Tris-HCl, pH 7.8, 150 mM NaCl, 5 mM EDTA, 0.5% Triton X-100, 0.5% NP-40). Approximately 5% of the lysate was loaded to a gel and then separated by electrophoresis in 10% SDS-PAGE. The proteins in the gel were electroblotted onto a polyvinylidene difluoride (PVDF) blotting membrane while using a Hoefer transfer system. Rta was detected while using mouse anti-Rta monoclonal antibody (Argene, Verniolle, France). α-Tubulin was detected using mouse anti-α-tubulin monoclonal antibody (Abcam, Cambridge, UK). Primary antibodies were detected using horseradish peroxidase-conjugated secondary antibodies (Cell Signaling Technology, Danvers, MA, USA) and then visualized using SuperSignal West Pico Chemiluminescent substrate (Thermo Fisher Scientific, Waltham, MA, USA).
On the technique in general: Immunoblotting shows a protein as a band on a membrane.

Series [2] in a line: MTT cytotoxicity assay on P3HR1 cells. The series is classed as cell-based. The note with it: human, 24 h. The method, then:
as §1
(§2) P3HR1 cells (5 × 10^4) were seeded in wells of a 96-well plate and then cultured for 24 h in 100 µL of RPMI 1640 medium containing protoapigenone or its analogs. Subsequently, 1% Triton X-100 was added as a […] control. Cytotoxicity was determined by Cell Proliferation Kit I (Roche, Basel, Switzerland). An aliquot of 10 µL of the MTT labeling reagent was added to each well and the plate was incubated for 4 h at 37°C. Afterwards, 100 µL solubilization solution was added to each well to dissolve insoluble formazan and was incubated overnight. Optical density was measured at 595 nm and 650 nm.
(In general: Formazan colour is commonly taken as a measure of viable cells.)

Series [3] can be described thus: MTT cytotoxicity on the HIV host cells. The note with it: human, U373-CD4-CCR5 cells, MTT, 48 h, n=2; tested up to 100 µM (compound 9 up to 500 µM); read-out: Cytotoxic IC50 ± SEM. In kind it is cell-based. As to the method:
(§3) The U373-CD4-CCR5 cell line was obtained from the AIDS Research and Reagent Program, NIAID. Cells were cultured according to the protocol of the provider with 10% heat-inactivated fetal bovine serum (Lonza, Maastricht, The Netherlands) supplemented with 2 mM L-glutamine, 100 units/mL of penicillin, and 100 µg/mL streptomycin (Invitrogen, Merelbeke, Belgium). Pseudotyped viral particules bearing the ADA HIV Env were produced, as described previously.
(§4) Antiviral activity was assessed while using a Pseudotype Virus Assay, allowing for one cycle of viral replication. The U373-CD4-CCR5 cells were infected by pseudotyped virus pNL4.3ΔenvLuc-ADA 8 using spinoculation at 1200 g during 2 h in the presence of compounds and cultured for two consecutive days in the presence of the compounds. After 48 h, luciferase activity expressed as Relative Light Units was measured (Luciferase System kit, Promega, The Netherlands). Drug cytotoxicity was evaluated while using MTT (3-(4,5-dimethylthiazol-2-yl)-2,5-diphenyltetrazolium bromide, Sigma, Belgium) 48 h after incubation with the compounds by measuring A540 and A690 using a POLARstar Omega Plate Reader (BMG Lab Technologies, Belgium) after 48 h of incubation with the compounds. The value of OD540–OD690 was calculated.

Series [4] relates to EBV lytic cycle (expression of EBV Rta). Details: method as in PMID 21490247. The note with it: 0.25 µM; cited from earlier work.
The next series deals with P3HR1 cells. As to the kind of experiment: MTT cytotoxicity assay on P3HR1 cells. The series is classed as cell-based. As to the method:
as §1, §2

The test system of a further series is HIV-1. Description: HIV-1 pseudotype virus assay (one cycle of viral replication, luciferase readout). The series is classed as cell-based. As to the method: Compounds 2, 6–14, and 21–28 were tested against HIV-1 while using a pseudotype virus assay allowing only one cycle of viral replication and being more sensitive for compounds targeting the early steps of HIV replication, such as reverse transcription and integration. […] While this represents a rather weak activity, it might still be of interest, since this compound was not cytotoxic on the host cells at as high as 500 µM concentration.
The U373-CD4-CCR5 cell line was obtained from the AIDS Research and Reagent Program, NIAID. Cells were cultured according to the protocol of the provider with 10% heat-inactivated fetal bovine serum (Lonza, Maastricht, The Netherlands) supplemented with 2 mM L-glutamine, 100 units/mL of penicillin, and 100 µg/mL streptomycin (Invitrogen, Merelbeke, Belgium). […]
Antiviral activity was assessed while using a Pseudotype Virus Assay, allowing for one cycle of viral replication. […] After 48 h, luciferase activity expressed as Relative Light Units was measured (Luciferase System kit, Promega, The Netherlands). Drug cytotoxicity was evaluated while using MTT (3-(4,5-dimethylthiazol-2-yl)-2,5-diphenyltetrazolium bromide, Sigma, Belgium) 48 h after incubation with the compounds by measuring A540 and A690 using a POLARstar Omega Plate Reader (BMG Lab Technologies, Belgium) after 48 h of incubation with the compounds. The value of OD540–OD690 was calculated.

For a further series, the system named is U373-CD4-CCR5 cells. As to the kind of experiment: MTT cytotoxicity on the HIV host cells. The series is classed as cell-based. The note with it: for IC50: U373-CD4-CCR5 cells, MTT, 48 h, n=2, tested up to 100 µM (compound 9 up to 500 µM), read-out: Cytotoxic IC50 ± SEM. The method, then:
as §3, §4

Turning to `O=C1C=CC(O)(c2cc(=O)c3c(O)cc(O)cc3o2)C=C1` [Compound 2, protoapigenone], in series [1], it took 0.127 µM to reach half-maximal inhibition (IC50) and the selectivity ratio at 24 h is 30.1. The same compound registered an IC50 at 24 h in series [2] of 3.86 µM. In addition, the IC50 at 48 h in series [3] turned out to be 0.22 ± 0.003 µM. In series [4], the “activity against EBV lytic cycle (in words)” value was “strong activity”.

On to `CC(C)OC1(c2cc(=O)c3c(O)cc(O)cc3o2)C=CC(=O)C=C1` [Compound 6, protoapigenone 1′-O-isopropyl ether], for which, in series [1], the “inhibition of EBV lytic cycle, first screening (in words)” value (shortened to “inhibition of EBV lytic cycle”) was “can inhibit EBV lytic cycle”; the “concentration causing a marked reduction in the Rta levels” value (shortened to “concentration causing a marked reduction”) turned out to be 0.50 µM; the IC50 came to 0.467 µM; the selectivity ratio at 24 h was found to be 73. In addition, the “cytotoxic activity compared to protoapigenone (in words)” value in the series on P3HR1 cells is given as “much weaker; also recorded: an order of magnitude lower cytotoxic effect”. The compound also showed an IC50 at 24 h in series [2] of 34.1 µM. The IC50 at 48 h in series [3] stood at 2.09 ± 0.13 µM.

Regarding `CCCCOC1(c2cc(=O)c3c(O)cc(O)cc3o2)C=CC(=O)C=C1` [Compound 7], in series [1], the “inhibition of EBV lytic cycle” value is listed as “can inhibit EBV lytic cycle”; the “concentration causing a marked reduction” value was 0.25 µM; half-maximal inhibition (IC50) required 0.208 µM; the selectivity ratio at 24 h turned out to be 9.8. For the same compound, the “cytotoxic activity compared to protoapigenone (in words)” value in the series on P3HR1 cells is given as “similarly active as protoapigenone”. This compound also yielded a half-inhibitory concentration (IC50) at 24 h in series [2] of 2.04 µM. Also, the IC50 at 48 h in series [3] was determined as 0.25 ± 0.002 µM.

Take `C#CCOC1(c2cc(=O)c3c(O)cc(O)cc3o2)C=CC(=O)C=C1` [Compound 8, protoapigenone 1′-O-propargyl ether]: in series [1], the “inhibition of EBV lytic cycle” value was “can inhibit EBV lytic cycle”; the “concentration causing a marked reduction” value came to 0.50 µM; the IC50 stood at 0.285 µM; the selectivity ratio at 24 h was found to be 17.3. In addition, in the series with P3HR1 cells, the “cytotoxic activity compared to protoapigenone (in words)” value is reported as “similarly active as protoapigenone”. The compound also gave an IC50 at 24 h in series [2] of 4.93 µM. Besides, the IC50 at 48 h in series [3] is 0.67 ± 0.03 µM.

For `O=C1CCC(O)(c2cc(=O)c3c(O)cc(O)cc3o2)CC1` [Compound 9, Tetrahydroprotoapigenone], in the series on HIV-1 (Human immunodeficiency virus 1, 48 h, read-out: inhibition of viral infection), the inhibition at 100 µM is about 50%. Besides, in the series with HIV-1 (pseudotype virus assay, 100 µM where stated), the “antiretroviral activity against HIV-1 (in words)” value is on record as “inhibits HIV-1 infection; also recorded: weak antiretroviral activity”. Further, the “cytotoxicity on the host cells (in words)” value in the series on U373-CD4-CCR5 cells (at as high as 500 µM) is reported as “not cytotoxic”. Moreover, in series [3], the IC50 at 48 h was over 500 µM.

As to `COC1(c2cc(=O)c3c(O)cc(O)cc3o2)CCC(=O)CC1` [Compound 10], in series [3], the IC50 at 48 h is over 100 µM.

On to `CCOC1(c2cc(=O)c3c(O)cc(O)cc3o2)CCC(=O)CC1` [Compound 11], for which the IC50 at 48 h in series [3] was over 100 µM.

For `CCCOC1(c2cc(=O)c3c(O)cc(O)cc3o2)CCC(=O)CC1` [Compound 12], the IC50 at 48 h in series [3] was over 100 µM.

`CC(C)OC1(c2cc(=O)c3c(O)cc(O)cc3o2)CCC(=O)CC1` [Compound 13]: the IC50 at 48 h in series [3] was over 100 µM.

As to `CCCCOC1(c2cc(=O)c3c(O)cc(O)cc3o2)CCC(=O)CC1` [Compound 14], in series [3], the half-inhibitory concentration (IC50) at 48 h was about 6.37 µM.

In the case of `COC1CC(=NO)C=CC1(OC(C)C)c1cc(=O)c2c(O)cc(O)cc2o1` (stereo not shown) [Compound 21], in series [3], the IC50 at 48 h is over 100 µM.

Regarding `CCCCOC1(c2cc(=O)c3c(O)cc(O)cc3o2)C=CC(=NO)CC1OC` (stereo not shown) [Compound 22], the IC50 at 48 h in series [3] is over 100 µM.

`C#CCOC1(c2cc(=O)c3c(O)cc(O)cc3o2)C=CC(=NO)CC1OC` (stereo not shown) [Compound 23]: the IC50 at 48 h in series [3] is about 89.5 µM.

In the case of `COC1CC(=NO)C=CC1(OC(C)C)c1cc(=O)c2c(O)cc(O)cc2o1` (stereo not shown) [Compound 24], the IC50 with U373-CD4-CCR5 cells is over 100 µM.

As for `CCCCOC1(c2cc(=O)c3c(O)cc(O)cc3o2)C=CC(=NO)CC1OC` (stereo not shown) [Compound 25], in the series on U373-CD4-CCR5 cells, the IC50 stood at 53.88 ± 0.35 µM.

With `C#CCOC1(c2cc(=O)c3c(O)cc(O)cc3o2)C=CC(=NO)CC1OC` (stereo not shown) [Compound 26], in the series with U373-CD4-CCR5 cells, the IC50 is over 100 µM.

Consider `O=c1cc(C2(O)CCC(=NO)CC2)oc2cc(O)cc(O)c12` (stereo not shown) [Compound 27], for which the IC50 at 48 h in series [3] was over 100 µM.

As to `CCCCOC1(c2cc(=O)c3c(O)cc(O)cc3o2)CCC(=NO)CC1` (stereo not shown) [Compound 28], in series [3], the IC50 at 48 h was 27 ± 8.4 µM.

One may read the IC50 as the concentration at which inhibition is half-maximal. The term inhibition denotes how much of the control response was suppressed.
